Key:
human recombinant PDE V = human recombinant PDE V (Homo sapiens, UniProt O76074); experiment: Inhibitory effect on cGMP-PDE (one-step assay, human recombinant PDE V); type: biochemical; conditions: 0.15 μM 8-[H^3]-cGMP, 2% DMSO, 30 minutes
Experimental: cGMP-PDE activity of compounds of the present invention was measured using a one-step assay adapted from Wells at al. (Wells, J. N., Baird, C. E., Wu, Y. J. and Hardman, J. G., Biochim. Biophys. Acta 384, 430 (1975)). The reaction medium contained 50 mM Tris-HCl,pH 7.5, 5 mM Mg-acetate, 250 μg/ml 5'-Nucleotidase, 1 mM EGTA and 0.15 μM 8-[H^3 ]-cGMP. The enzyme used was a human recombinant PDE V (ICOS, Seattle USA).
Compounds of the invention were dissolved in DMSO finally present at 2% in the assay.

[1] = test system: Rat aortic smooth muscle cells (RSMC); experiment: cGMP level measurements in rat aortic smooth muscle cells (RSMC); type: cell-based; conditions: 10 min, cGMP after ANF (100 nM) stimulation for 10 minutes, dose giving half of the stimulation at saturating concentrations
Experimental: Rat aortic smooth muscle cells (RSMC) prepared according to Chamley et al. in Cell Tissue Res. 177, 503-522 (1977) were used between the 10th and 25th passage at confluence in 24-well culture dishes. Culture media was aspirated and replaced with PBS (0.5 ml) containing the compound tested at the appropriate concentration. After 30 minutes at 37° C., particulates guanylate cyclase was stimulated by addition of ANF (100 nM) for 10 minutes. At the end of incubation, the medium was withdrawn and two extractions were performed by addition of 65% ethanol (0.25 ml). The two ethanolic extracts were pooled and evaporated until dryness, using a Speed-vac system. c-GMP was measured after acetylation by scintillation proximity immunoassay ([…]). The EC50 values are expressed as the dose giving half of the stimulation at saturating concentrations

[2] = test system: conscious spontaneously hypertensive rats (SHRs); experiment: Hypotensive effects in conscious spontaneously hypertensive rats; type: in vivo, rat; conditions: AUC from 0 to 5 hours
Experimental: The hypotensive effects of compounds according to the invention as identified in Table 2 were studied in conscious spontaneously hypertensive rats (SHRs). The compounds were administered orally at a dose of 5 or 10 mg/kg in a mixture of 5% DMF and 95% olive oil, or i.v. at a dose of 10 mg/kg in a mixture of 40% dimethylformamide, 25% tetraglycol, and […]. Blood pressure was measured from a catheter inserted in the carotid artery and recorded for 5 hours after administration. The results are expressed as Area Under the Curve (AUC from 0 to 5 hours, mmHg.hour) of the fall in blood pressure over time.

Compound | IC50 (human recombinant PDE V) | EC50 [1] | AUC of the fall in blood pressure over time ([2]; dosed at 5 mg/kg p.o.) | AUC of the fall in blood pressure over time ([2]; dosed at 10 mg/kg i.v.)
O=C1[C@H]2Cc3c([nH]c4ccccc34)[C@H](c3ccc4c(c3)OCO4)N2C(=O)N1Cc1ccccc1 (relative stereo) [1 (cis isomer), Cis-2-benzyl-5-(3,4-methylenedioxyphenyl)-5,6,11,11a-tetrahydro-1H-imidazo [1',5':1,6]pyrido[3,4-b]indole-1,3(2H)-dione] | < 10 nM | 300 nM | 104 mmHg·h | –
COc1ccc([C@H]2c3[nH]c4ccccc4c3C[C@@H]3C(=O)N(C4CCCCC4)C(=O)N23)cc1 (relative stereo) [26 (cis isomer), Cis-2-cyclohexyl-5-(4-methoxyphenyl)-5,6,11,11a-tetrahydro-1H-imidazo [1',5':1,6] pyrido[3,4-b]indole-1,3(2H)-dione] | 7 nM | 300 nM | – | 117 mmHg·h
CCCCN1C(=O)[C@@H]2Cc3c([nH]c4ccccc34)[C@H](c3ccc(OC)cc3)N2C1=O (relative stereo) [Example 10, Trans-2-butyl-5-(4-methoxyphenyl)-5,6,11,11a-tetrahydro-1H-imidazo [1',5':1,6] pyrido[3,4-b]indole-1,3(2H)-dione] | – | < 1000 nM | – | 147 mmHg·h
O=C1[C@H]2Cc3c([nH]c4ccccc34)[C@@H](c3ccc4c(c3)OCO4)N2C(=O)N1Cc1ccccc1 [Example 32, (5R,11aR)-2-benzyl-5-(3,4-methylenedioxyphenyl)-5,6,11,11a-tetrahydro-1H-imidazo [1',5':1,6]pyrido[3,4-b]indole-1,3(2H)-dione] | < 10 nM | 200 nM | 65 mmHg·h | –

Reference: patent US6218400A, “Treatment method using a cGMP-Specific PDE inhibitor” (ICOS Corporation, priority 1995, dated 2001)
